Results on 17 compounds are retold here after patent US10202412B2, “β-D-2′-deoxy-2′-substituted-4′-substituted-2-substituted-N6-substituted-6-aminopurinenucleotides for the treatment of paramyxovirus and orthomyxovirus infections” (Atea Pharmaceuticals, Inc., priority 2016, dated 2019).

Holding throughout (type): cell-based
Data set [1] concerns Respiratory syncytial virus (RSV) type A, strain A2 (ATCC VR-1540). In words: dNHBE assay: RSV virus yield reduction (EC90). As to conditions: human respiratory syncytial virus, RSV (A2) in dNHBE cells; concentration reducing virus yield by 1 log10; mean of at least two experiments. As for the experimental part: (§1) Differentiated normal human bronchial epithelial (dNHBE) cells were grown on 6 mm mesh disks in transwell inserts to approximately 1.2×10^6 cells/disk and disks were transferred to individual wells of a 6-well plate. 1 mL of proprietary culture medium was added to the basolateral side of the cells and the apical side was exposed to a humidified 95% air/5% CO2 environment. Cells were cultured at 37° C. for one day and then the mucin layer was removed from the apical side of the cells by repeated (3×) washing with 500 μL 30 mM HEPES buffered saline solution and culture medium on the basal side was replenished.
Respiratory syncytial virus (RSV) type A, strain A2 (ATCC VR-1540), previously passaged in MA-104 cells to make working stock cultures, was diluted 1/10 in medium before infection, using a multiplicity of infection (MOI) of ≤0.03 CCID50 per cell.
(§2) Various concentrations of test compounds in medium were applied in duplicate to the apical (140 μL) and basal sides (1 mL) for a 1 hour pre-treatment, followed by addition of 140 μL of virus inoculum to each cell insert on the apical side. The viral inoculum and treatments were removed after 2 hours. Control cells were treated with placebo (culture medium only). Following infection, the apical medium was removed and the basal side was replaced with fresh compound in medium. The cells were maintained at the air-liquid interface, and cell culture medium on the basal side was replaced daily with fresh medium containing test compound. After 4 days, the liquid was removed from the basal side and discarded and virus released into the apical compartment was harvested by the addition of 500 μL of culture medium. The medium was thoroughly mixed, then removed, diluted 1:1 with 40% sucrose and stored at ≤−80° C.
To determine the virus titer from each treated cell culture, MA-104 cells were seeded in 96-well plates and grown overnight (37° C.) to confluence. Samples containing virus were diluted in 10-fold increments in infection medium and 200 μL of each dilution transferred into respective wells of a 96-well microtiter plate. Four microwells were used for each dilution to determine 50% viral endpoints. After 7 days of incubation, each well was scored positive for virus if any cytopathic effect was observed as compared with the uninfected control. The virus dose that was able to infect 50% of the cell cultures (CCID50 per 0.1 mL) was calculated by the Reed-Muench method. This was repeated in duplicate for each test sample, so that values reported are an average of 2 independent CCID5o determinations. Untreated, uninfected cell controls were tested as negative controls. Statistical differences in the titers were evaluated with a one-way analysis of variance (ANOVA) followed by Dunnett's multiple comparisons test compared with the untreated virus controls.
(§3) Concentrations of test compounds that reduced virus yield by 1 log10 (90% effective concentration; EC90) were calculated by regression analysis. The reported EC90 value is the mean of at least two experiments. Potential toxicity of the test compounds was evaluated microscopically.

The test system of data set [2] is Differentiated normal human bronchial epithelial (dNHBE) cells. The experiment in a line: dNHBE assay: toxicity evaluated microscopically. Also on record: unit not given here. How it is done: as §1, §2, §3
Data set [3] has as its system respiratory syncytial virus A2 (ATCC VR-1540). The experiment in a line: Cytopathic effect assay with RSV A2 in MA-104 cells. As to conditions: human respiratory syncytial virus, MA104, CPE inhibition, neutral red. How it is done:
Test compounds were dissolved in DMSO and then prepared in eight half-log dilutions in MEM medium with 50 μg/mL gentamicin and 2% FBS (MA-104 cells only). Each dilution was added to 5 wells of a 96-well plate with 80-100% confluent cells (either MA-104 cells or HEp-2 cells). Three wells of each dilution were infected with respiratory syncytial virus A2 (ATCC VR-1540) and two wells remained uninfected as toxicity controls. After maximum cytopathic effect (CPE) was observed microscopically in untreated virus control wells, plates were stained with neutral red dye for approximately 2 hours, then supernatant dye was removed and the incorporated dye was extracted in 50:50 Sorensen citrate buffer/ethanol and read on a spectrophotometer. Optical density values were normalized based on cell and virus controls, then the concentration of test compound required to inhibit CPE by 50% (EC50) was calculated by regression analysis. The reported EC50 value is the mean of at least two experiments. The concentration of compound that caused 50% CPE in the absence of virus was similarly calculated to determine cytotoxicity (CC50).

The compound `CC(C)OC(=O)[C@H](C)NP(=O)(OC[C@@]1(CCl)O[C@@H](n2ccc(N)nc2=O)[C@H](F)C1O)Oc1ccccc1` (stereo in doubt) [Z] registered an EC90 in data set [1] of 2000 nM. This compound also displayed a Visual toxicity in data set [2] of over 177. Besides, in data set [3], the EC50 is over 177000 nM.

In data set [1], `CN(C)c1nc(N)nc2c1ncn2[C@@H]1O[C@](C)(CO)[C@@H](O)[C@H]1F` [A, (2R,3R,4R,5R)-5-(2-Amino-6-(dimethylamino)-9H-purin-9-yl)-4-fluoro-2-(hydroxymethyl)-2-methyltetrahydrofuran-3-ol] registered an EC90 of 142000 nM. This compound returned a Visual toxicity in data set [2] of over 306. This compound also showed an EC50 in data set [3] of over 306000 nM.

In data set [1], `CNc1nc(F)nc2c1ncn2[C@@H]1O[C@](C)(CO[P@@](=O)(N[C@@H](C)C(=O)OC(C)C)Oc2ccccc2)[C@@H](O)[C@@H]1F` [AP, (S)-Isopropyl 2-(((S)-(((2R,3R,4S,5R)-5-(6-(methylamino)-2-fluoro-9H-purin-9-yl)-4-fluoro-3-hydroxy-2-methyltetrahydrofuran-2-yl)methoxy)(phenoxy)phosphoryl)amino) propanoate] had an EC90 of 34 nM. In data set [2], this compound registered a Visual toxicity of over 1.7.

As to `CNc1nc(Cl)nc2c1ncn2[C@@H]1O[C@](C)(CO[P@@](=O)(N[C@@H](C)C(=O)OC(C)C)Oc2ccccc2)[C@@H](O)[C@H]1F` [AR, (S)-Isopropyl 2-(((S)-(((2R,3R,4R,5R)-5-(6-(methylamino)-2-chloro-9H-purin-9-yl)-4-fluoro-3-hydroxy-2-methyltetrahydrofuran-2-yl)methoxy)(phenoxy)phosphoryl)amino) propanoate], in data set [1], the EC90 was 1000 nM. This compound returned a Visual toxicity in data set [2] of over 1.6.

As for `CC(C)OC(=O)[C@H](C)N[P@](=O)(OC[C@@]1(C)O[C@@H](n2cnc3c(N(C)C4CC4)nc(N)nc32)[C@H](F)[C@@H]1O)Oc1ccccc1` [AS, (S)-Isopropyl 2-(((S)-(((2R,3R,4R,5R)-5-(2-amino-6-(cyclopropyl(methyl)amino)-9H-purin-9-yl)-4-fluoro-3-hydroxy-2-methyltetrahydrofuran-2-yl)methoxy)(phenoxy)phosphoryl)amino) propanoate], it took 1500 nM to reach the 90% level in data set [1] (EC90). The compound further had a Visual toxicity in data set [2] of over 1.6.

Compound `CNc1nc(N)nc2c1ncn2[C@@H]1O[C@](CF)(CO[P@@](=O)(N[C@@H](C)C(=O)OC(C)C)Oc2ccccc2)[C@@H](O)[C@@H]1F` [AT, (S)-Isopropyl 2-(((S)-(((2R,3R,4S,5R)-5-(2-amino-6-(methylamino)-9H-purin-9-yl)-4-fluoro-2-(fluoromethyl)-3-hydroxytetrahydrofuran-2-yl)methoxy)(phenoxy)phosphoryl)amino) propanoate] yielded an EC90 in data set [1] of 180 nM. This compound also had a Visual toxicity in data set [2] of over 1.6.

For the compound `CNc1nc(NC)c2ncn([C@@H]3O[C@](C)(CO[P@@](=O)(N[C@@H](C)C(=O)OC(C)C)Oc4ccccc4)[C@@H](O)[C@H]3F)c2n1` [AU, (S)-Isopropyl 2-(((S)-(((2R,3R,4R,5R)-5-(2,6-bis(methylamino)-9H-purin-9-yl)-4-fluoro-3-hydroxy-2-methyltetrahydrofuran-2-yl)methoxy)(phenoxy)phosphoryl)amino) propanoate], the EC90 in data set [1] was over 1700 nM. This compound returned a Visual toxicity in data set [2] of over 1.7.

For `CC(C)OC(=O)[C@H](C)N[P@](=O)(OC[C@@]1(C)O[C@@H](n2cnc3c(NC4CC4)nc(N)nc32)[C@H](F)[C@@H]1O)Oc1ccccc1` [AV, (S)-Isopropyl 2-(((S)-(((2R,3R,4R,5R)-5-(2-amino-6-(cyclopropylamino)-9H-purin-9-yl)-4-fluoro-3-hydroxy-2-methyltetrahydrofuran-2-yl)methoxy)(phenoxy)phosphoryl)amino) propanoate], in data set [1], the EC90 was 99 nM. The Visual toxicity in data set [2] is reported as over 1.6.

Consider `CNc1nc(N)nc2c1ncn2[C@@H]1O[C@](C)(CO[P@@](=O)(N[C@@H](C)C(=O)OC(C)C)Oc2ccccc2)[C@@H](O)[C@H]1F` [Compound AC], for which it took 74 nM to reach the 90% level in data set [1] (EC90). The compound further displayed a Visual toxicity in data set [2] of over 1.4.

Take `CC(C)OC(=O)[C@H](C)N[P@](=O)(OC[C@@]1(C)O[C@@H](n2cnc3c(N(C)C)nc(F)nc32)[C@H](F)[C@@H]1O)Oc1ccccc1` [Compound AD, (S)-Isopropyl 2-(((S)-(((2R,3R,4R,5R)-5-(6-(dimethylamino)-2-fluoro-9H-purin-9-yl)-4-fluoro-3-hydroxy-2-methyltetrahydrofuran-2-yl)methoxy)(phenoxy)phosphoryl)amino) propanoate]: the EC90 in data set [1] came out at 8400 nM. The compound further came in with a Visual toxicity in data set [2] of over 16.

Take `CC(C)OC(=O)[C@H](C)N[P@](=O)(OC[C@@]1(C)O[C@@H](n2cnc3c(N(C)C)nc(Cl)nc32)[C@H](F)[C@@H]1O)Oc1ccccc1` [Compound AE, (S)-Isopropyl 2-(((S)-(((2R,3R,4R,5R)-5-(6-(dimethylamino)-2-chloro-9H-purin-9-yl)-4-fluoro-3-hydroxy-2-methyltetrahydrofuran-2-yl)methoxy)(phenoxy)phosphoryl)amino) propanoate]: in data set [1], the 90% effect level (EC90) was put at 9300 nM. Also, in data set [2], the Visual toxicity was over 16.

`CNc1nc(N)nc2c1ncn2[C@@H]1O[C@@](CO)(CCl)[C@@H](O)[C@H]1F` [Compound M, (2R,3R,4R,5R)-5-(2-Amino-6-(methylamino)-9H-purin-9-yl)-2-(chloromethyl)-4-fluoro-2-(hydroxymethyl)tetrahydrofuran-3-ol]: it took 2900 nM to reach the 90% level in data set [1] (EC90). In data set [2], this compound displayed a Visual toxicity of over 288.

Turning to `CNc1nc(N)nc2c1ncn2[C@@H]1O[C@](CCl)(COP(=O)(N[C@@H](C)C(=O)OC(C)C)Oc2ccccc2)[C@@H](O)[C@H]1F` (stereo partly drawn) [Compound N, (2S)-Isopropyl 2-(((((2R,3R,4R,5R)-5-(2-amino-6-(methylamino)-9H-purin-9-yl)-2-(chloromethyl)-4-fluoro-3-hydroxytetrahydrofuran-2-yl)methoxy)(phenoxy)-phosphoryl)amino)propanoate], the 90% effect level in data set [1] (EC90) was put at 830 nM. Also, the Visual toxicity in data set [2] is on record as over 162.

As to `CC[C@]1(CO)O[C@@H](n2cnc3c(NC)nc(N)nc32)[C@H](F)[C@@H]1O` [Compound Q, (2R,3R,4R,5R)-5-(2-Amino-6-(methylamino)-9H-purin-9-yl)-2-ethyl-4-fluoro-2-(hydroxymethyl)tetrahydrofuran-3-ol], the EC90 in data set [1] turned out to be 7300 nM. The compound further displayed a Visual toxicity in data set [2] of over 306.

As to `CC[C@]1(COP(=O)(N[C@@H](C)C(=O)OC(C)C)Oc2ccccc2)O[C@@H](n2cnc3c(NC)nc(N)nc32)[C@H](F)[C@@H]1O` (stereo partly drawn) [Compound R, (2S)-Isopropyl 2-(((((2R,3R,4R,5R)-5-(2-amino-6-(methylamino)-9H-purin-9-yl)-2-ethyl-4-fluoro-3-hydroxytetrahydrofuran-2-yl)methoxy)(phenoxy)-phosphoryl)amino) propanoate], the EC90 in data set [1] came to 2300 nM. Besides, the Visual toxicity in data set [2] is reported as over 167.

On to `CC(C)C(=O)Nc1nc(N(C)C)c2ncn([C@@H]3O[C@@](CO)(CCl)[C@@H](O)[C@H]3F)c2n1` [X], for which the EC50 in data set [3] was over 232000 nM.

As for `CC(C)OC(=O)[C@H](C)NP(=O)(OC[C@@]1(CCl)O[C@@H](n2cnc3c(N(C)C)nc(NC(=O)C(C)C)nc32)[C@H](F)[C@@H]1O)Oc1ccccc1` (stereo partly shown) [Y], in data set [3], the EC50 is over 142000 nM.
